Read-outs that look alike come from different tables or passages of the source.
Assays:
[1] = target: JAK1 (Homo sapiens (Human), UniProt P23458); test: Jak Biochemical HTRF Assay, JAK1; conditions: read-out: JAK1 IC50
Text: (§1) Jak Biochemical HTRF Assay Protocol
(§2) Subsequent reagent additions employed an Agilent Bravo.

[2] = target: JAK2 (Homo sapiens (Human), UniProt O60674); test: Jak Biochemical HTRF Assay, JAK2
Text: as §1, §2

[3] = HTRF biochemical assay, GST-tagged catalytic domain, top concentration tested […]

JAK2, sequence (O60674 849-1124): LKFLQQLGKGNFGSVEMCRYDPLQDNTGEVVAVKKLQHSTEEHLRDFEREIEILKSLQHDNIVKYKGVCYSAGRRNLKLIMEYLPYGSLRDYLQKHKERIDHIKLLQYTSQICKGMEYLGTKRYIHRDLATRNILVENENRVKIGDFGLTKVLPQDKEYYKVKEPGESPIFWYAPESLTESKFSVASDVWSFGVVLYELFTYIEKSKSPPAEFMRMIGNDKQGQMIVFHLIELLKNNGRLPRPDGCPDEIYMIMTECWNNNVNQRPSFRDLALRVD
JAK1, sequence (P23458 875-1153): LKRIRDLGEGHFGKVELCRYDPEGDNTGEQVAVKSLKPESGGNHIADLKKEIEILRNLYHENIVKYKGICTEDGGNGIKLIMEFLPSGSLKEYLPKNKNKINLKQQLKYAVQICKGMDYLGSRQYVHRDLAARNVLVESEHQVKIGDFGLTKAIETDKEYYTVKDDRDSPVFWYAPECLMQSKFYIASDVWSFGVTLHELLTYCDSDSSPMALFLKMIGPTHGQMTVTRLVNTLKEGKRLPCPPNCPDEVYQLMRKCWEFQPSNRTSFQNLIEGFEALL

SMILES | IC50 [1, 3] [nM] | IC50 [2, 3] [nM] | IC50 [1] [nM] | IC50 [2] [nM]
N#CCC1(n2cc(C(N)=O)c(Nc3ccc(S(=O)(=O)C(F)F)cc3)n2)CCC(Nc2cccc(O)c2)CC1 (stereo not drawn) [Example 40-44, Cis or trans 1-{1-(cyanomethyl)-4-[(3-hydroxyphenyl)amino]cyclohexyl}-3-({4-[(difluoromethyl)sulfonyl]phenyl}amino)-1H-pyrazole-4-carboxamide] | – | – | 0.1 | 0.8
N#CCC1(n2cc(C(N)=O)c(Nc3ccnc(F)c3)n2)CCC(Nc2ccc(Cl)cc2)CC1 (stereo not drawn) [Example 40-45, Cis or trans 1-{4-[(4-chlorophenyl)amino]-1-(cyanomethyl)cyclohexyl}-3-[(2-fluoropyridin-4-yl)amino]-1H-pyrazole-4-carboxamide] | 38 | 770 | – | –
N#CCC1(n2cc(C(N)=O)c(Nc3ccnc(F)c3)n2)CCC(Nc2ccc(F)cc2)CC1 (stereo not drawn) [Example 40-47, Cis or trans 1-{1-(cyanomethyl)-4-[(4-fluorophenyl)amino]cyclohexyl}-3-[(2-fluoropyridin-4-yl)amino]-1H-pyrazole-4-carboxamide] | 215 | > 1500 | – | –
N#CCC1(n2cc(C(N)=O)c(Nc3ccnc(F)c3)n2)CCC(NC2CCCCC2)CC1 (stereo not drawn) [Example 40-51, Cis or trans 1-[1-(cyanomethyl)-4-(cyclohexylamino)cyclohexyl]-3-[(2-fluoropyridin-4-yl)amino]-1H-pyrazole-4-carboxamide] | 598 | > 1500 | – | –
N#CCC1(n2cc(C(N)=O)c(Nc3ccc(F)cc3)n2)CCC(Nc2ccc(Cl)cc2)CC1 (stereo not drawn) [Example 40-53, Cis or trans 1-{4-[(4-chlorophenyl)amino]-1-(cyanomethyl)cyclohexyl}-3-[(4-fluorophenyl)amino]-1H-pyrazole-4-carboxamide] | 400 | > 1500 | – | –
N#CCC1(n2cc(C(N)=O)c(Nc3ccc(S(=O)(=O)C(F)F)cc3)n2)CCC(NC2CCCCC2)CC1 (stereo not drawn) [Example 40-57, Cis or trans 1-[1-(cyanomethyl)-4-(cyclohexylamino)cyclohexyl]-3-({4-[(difluoromethyl)sulfonyl]phenyl}amino)-1H-pyrazole-4-carboxamide] | – | > 1500 | 415 | –
N#CCC1(n2cc(C(N)=O)c(Nc3ccc(F)cc3)n2)CCC(Nc2ccccc2F)CC1 (stereo not drawn) [Example 40-60, Cis or trans 1-{1-(cyanomethyl)-4-[(2-fluorophenyl)amino]cyclohexyl}-3-[(4-fluorophenyl)amino]-1H-pyrazole-4-carboxamide] | 45 | 758 | – | –
N#CCC1(n2cc(C(N)=O)c(Nc3ccnc(F)c3)n2)CCC(Nc2cccc(Cl)c2)CC1 (stereo not drawn) [Example 40-62, Cis or trans 1-{4-[(3-chlorophenyl)amino]-1-(cyanomethyl)cyclohexyl}-3-[(2-fluoropyridin-4-yl)amino]-1H-pyrazole-4-carboxamide] | 38 | 832 | – | –
N#CCC1(n2cc(C(N)=O)c(Nc3ccc(S(=O)(=O)C(F)F)cc3)n2)CCC(NC2CCOCC2)CC1 (stereo not drawn) [Example 40-66, Cis or trans 1-[1-(cyanomethyl)-4-(tetrahydro-2H-pyran-4-ylamino)cyclohexyl]-3-({4-[(difluoromethyl)sulfonyl]phenyl}amino)-1H-pyrazole-4-carboxamide] | 344 | > 1500 | – | –
N#CCC1(n2cc(C(N)=O)c(Nc3ccc(S(=O)(=O)C(F)F)cc3)n2)CCC(N2CCC(O)CC2)CC1 (stereo not drawn) [Example 40-67, Cis or trans 1-[1-(cyanomethyl)-4-(4-hydroxypiperidin-1-yl)cyclohexyl]-3-({4-[(difluoromethyl)sulfonyl]phenyl}amino)-1H-pyrazole-4-carboxamide] | 37 | 773 | – | –
N#CCC1(n2cc(C(N)=O)c(Nc3ccc(F)cc3)n2)CCC(Nc2ccc(C(F)(F)F)cc2)CC1 (stereo not drawn) [Example 40-73, Cis or trans 1-[1-(cyanomethyl)-4-{[4-(trifluoromethyl)phenyl]amino}cyclohexyl]-3-[(4-fluorophenyl)amino]-1H-pyrazole-4-carboxamide] | 139 | > 1500 | – | –
N#CCC1(n2cc(C(N)=O)c(Nc3ccc(F)cc3)n2)CCC(NCC(F)F)CC1 (stereo not drawn) [Example 40-77, Cis or trans 1-{1-(cyanomethyl)-4-[(2,2-difluoroethyl)amino]cyclohexyl}-3-[(4-fluorophenyl)amino]-1H-pyrazole-4-carboxamide] | 0.7 | 13 | – | –

More lines, in order of falling IC50 [1, 3], values ahead:

IC50 [1, 3] [nM] | IC50 [2, 3] [nM] | SMILES | IC50 [1] [nM] | IC50 [2] [nM]
24 | 814 | COCCNC1CCC(CC#N)(n2cc(C(N)=O)c(Nc3ccc(F)cc3)n2)CC1 (stereo not drawn) [Example 40-71, Cis or trans 1-{1-(cyanomethyl)-4-[(2-methoxyethyl)amino]cyclohexyl}-3-[(4-fluorophenyl)amino]-1H-pyrazole-4-carboxamide] | – | –
13 | 409 | N#CCC1(n2cc(C(N)=O)c(Nc3ccnc(F)c3)n2)CCC(Nc2cccc(F)c2)CC1 (stereo not drawn) [Example 40-55, Cis or trans 1-{1-(cyanomethyl)-4-[(3-fluorophenyl)amino]cyclohexyl}-3-[(2-fluoropyridin-4-yl)amino]-1H-pyrazole-4-carboxamide] | – | –
13 | 225 | CC(=O)N1CCN(C2CCC(CC#N)(n3cc(C(N)=O)c(Nc4ccc(F)cc4)n3)CC2)CC1 (stereo not drawn) [Example 40-76, Cis or trans 1-[4-(4-acetylpiperazin-1-yl)-1-(cyanomethyl)cyclohexyl]-3-[(4-fluorophenyl)amino]-1H-pyrazole-4-carboxamide] | – | –
9 | 667 | N#CCC1(n2cc(C(N)=O)c(Nc3ccc(F)cc3)n2)CCC(NCC2CC2)CC1 (stereo not drawn) [Example 40-69, Cis or trans 1-{1-(cyanomethyl)-4-[(cyclopropylmethyl)amino]cyclohexyl}-3-[(4-fluorophenyl)amino]-1H-pyrazole-4-carboxamide] | – | –
5 | 137 | N#CCC1(n2cc(C(N)=O)c(Nc3ccc(F)cc3)n2)CCC(N2CCc3ccccc32)CC1 (stereo not drawn) [Example 40-49, Cis or trans 1-[1-(cyanomethyl)-4-(2,3-dihydro-1H-indol-1-yl)cyclohexyl]-3-[(4-fluorophenyl)amino]-1H-pyrazole-4-carboxamide] | – | –
1 | 37 | CN(CCS(C)(=O)=O)C1CCC(CC#N)(n2cc(C(N)=O)c(Nc3ccc(F)cc3)n2)CC1 (stereo not drawn) [Example 40-72, Cis or trans 1-[1-(cyanomethyl)-4-{methyl[2-(methylsulfonyl)ethyl]amino}cyclohexyl]-3-[(4-fluorophenyl)amino]-1H-pyrazole-4-carboxamide] | – | –
1 | 35 | COC1CN(C2CCC(CC#N)(n3cc(C(N)=O)c(Nc4ccc(F)cc4)n3)CC2)C1 (stereo not drawn) [Example 40-74, Cis or trans 1-[1-(cyanomethyl)-4-(3-methoxyazetidin-1-yl)cyclohexyl]-3-[(4-fluorophenyl)amino]-1H-pyrazole-4-carboxamide] | – | –
0.9 | 24 | N#CCC1(n2cc(C(N)=O)c(Nc3ccnc(F)c3)n2)CCC(N2CCc3ccccc32)CC1 (stereo not drawn) [Example 40-54, Cis or trans 1-[1-(cyanomethyl)-4-(2,3-dihydro-1H-indol-1-yl)cyclohexyl]-3-[(2-fluoropyridin-4-yl)amino]-1H-pyrazole-4-carboxamide] | – | –
0.6 | 20 | N#CCC1(n2cc(C(N)=O)c(Nc3ccc(F)cc3)n2)CCC(Nc2ccc(Cl)cc2)CC1 (stereo not drawn) [Example 40-52, Cis or trans 1-{4-[(4-chlorophenyl)amino]-1-(cyanomethyl)cyclohexyl}-3-[(4-fluorophenyl)amino]-1H-pyrazole-4-carboxamide] | – | –
0.3 | 14 | N#CCC1(n2cc(C(N)=O)c(Nc3ccc(S(=O)(=O)C(F)F)cc3)n2)CCC(N2CCC(O)CC2)CC1 (stereo not drawn) [Example 40-43, Cis or trans 1-[1-(cyanomethyl)-4-(4-hydroxypiperidin-1-yl)cyclohexyl]-3-({4-[(difluoromethyl)sulfonyl]phenyl}amino)-1H-pyrazole-4-carboxamide] | – | –
0.2 | 7 | N#CCC1(n2cc(C(N)=O)c(Nc3ccc(F)cc3)n2)CCC(Nc2ccccc2F)CC1 (stereo not drawn) [Example 40-58, Cis or trans 1-{1-(cyanomethyl)-4-[(2-fluorophenyl)amino]cyclohexyl}-3-[(4-fluorophenyl)amino]-1H-pyrazole-4-carboxamide] | – | –
0.2 | 9 | N#CCC1(n2cc(C(N)=O)c(Nc3ccc(F)cc3)n2)CCC(N2CCC(F)(F)CC2)CC1 (stereo not drawn) [Example 40-70, Cis or trans 1-[1-(cyanomethyl)-4-(4,4-difluoropiperidin-1-yl)cyclohexyl]-3-[(4-fluorophenyl)amino]-1H-pyrazole-4-carboxamide] | – | –
0.2 | 7 | N#CCC1(n2cc(C(N)=O)c(Nc3ccc(F)cc3)n2)CCC(Nc2cccnc2)CC1 (stereo not drawn) [Example 40-75, Cis or trans 1-[1-(cyanomethyl)-4-(pyridin-3-ylamino)cyclohexyl]-3-[(4-fluorophenyl)amino]-1H-pyrazole-4-carboxamide] | – | –
0.06 | 3 | N#CCC1(n2cc(C(N)=O)c(Nc3ccnc(F)c3)n2)CCC(Nc2ccc(Cl)cc2)CC1 (stereo not drawn) [Example 40-61, Cis or trans 1-{4-[(4-chlorophenyl)amino]-1-(cyanomethyl)cyclohexyl}-3-[(2-fluoropyridin-4-yl)amino]-1H-pyrazole-4-carboxamide] | – | –
0.05 | 2 | N#CCC1(n2cc(C(N)=O)c(Nc3ccnc(F)c3)n2)CCC(Nc2cccc(F)c2)CC1 (stereo not drawn) [Example 40-64, Cis or trans 1-{1-(cyanomethyl)-4-[(3-fluorophenyl)amino]cyclohexyl}-3-[(2-fluoropyridin-4-yl)amino]-1H-pyrazole-4-carboxamide] | – | –
0.03 | 1 | N#CCC1(n2cc(C(N)=O)c(Nc3ccnc(F)c3)n2)CCC(Nc2cc(F)ccc2F)CC1 (stereo not drawn) [Example 40-63, Cis or trans 1-{1-(cyanomethyl)-4-[(2,5-difluorophenyl)amino]cyclohexyl}-3-[(2-fluoropyridin-4-yl)amino]-1H-pyrazole-4-carboxamide] | – | –

Reference: patent publication US9328099B2, “Cyanomethylpyrazole carboxamides as janus kinase inhibitors” (Merck Sharp & Dohme Corp., priority 2011, dated 2016)
